Reference: patent US12209081B2 (Katholieke Universiteit Leuven, priority 2020, dated 2025)
pIC50: −log10 of the molar value.

Biological target: mouse TRPM3α2 (mTRPM3) ion channel (Mus musculus (Mouse), UniProt J9SQF3)
Experiment: TRPM3 ion channel driven Ca2+ uptake, Fluo-4 AM assay, mTRPM3alpha2 overexpressing flip-in HEK293 cells stimulated with pregnenolone sulfate
Type: cell-based
Details: for pIC50: PS (50 μM) stimulated; for IC50: PS 50 μM
Description: Part B Monitoring the TRPM3 Ion Channel Driven Ca^2+ Uptake.
In order to monitor the inhibition of the mouse TRPM3α2 (mTRPM3) ion channel by the compounds of the invention, a cellular system making use of an mTRPM3alpha2 or hTRPM3 overexpressing cell line (flip-in HEK293) was used. The TRPM3 channel was stimulated/opened with Pregnenolone sulfate (PS) (50 μM) which results in Ca^2+ influx.
For mTRPM3, the intracellular Ca^2+ was measured with a Calcium responsive dye. Fluor-4 AM ester (Invitrogen). Cells were cultured until a confluence of 80-90%, washed with Versene (Invitrogen) and detached from the surface by a short incubation with 0.05% Trypsin (Invitrogen). The trypsination process was stopped by the addition of complete cell culture medium (DMEM, glutamax, 10% FCS,NEAA,Pen-Strep). Cells were collected and resuspended in Krebs buffer without Calcium at RT.
Prior the cell seeding (±2000 cells/well into a black, 384 well plate (Greiner)) the diluted compound was added in the assay plate, together with the PS dissolved in Krebs buffer containing Calcium. […] Directly after cell addition the plates were read on an Envision fluorescence reader (Perkin Elmer) by an Excitation of 485 nm and emission at 535 nm.
Channel inhibition was calculated compared to a non-PS stimulated control versus a condition stimulated with PS (50 μM) with vehicle. The ability of the compounds of the invention to inhibit this activity was determined as: Percentage inhibition=[1-((RFU determined for sample with test compound present—RFU determined for sample with positive control inhibitor) divided by (RFU determined in the presence of vehicle—RFU determined for sample with positive control inhibitor))]*100.

mouse TRPM3α2 (mTRPM3) ion channel, sequence (J9SQF3 other isoform, or with tags, fused parts or gaps): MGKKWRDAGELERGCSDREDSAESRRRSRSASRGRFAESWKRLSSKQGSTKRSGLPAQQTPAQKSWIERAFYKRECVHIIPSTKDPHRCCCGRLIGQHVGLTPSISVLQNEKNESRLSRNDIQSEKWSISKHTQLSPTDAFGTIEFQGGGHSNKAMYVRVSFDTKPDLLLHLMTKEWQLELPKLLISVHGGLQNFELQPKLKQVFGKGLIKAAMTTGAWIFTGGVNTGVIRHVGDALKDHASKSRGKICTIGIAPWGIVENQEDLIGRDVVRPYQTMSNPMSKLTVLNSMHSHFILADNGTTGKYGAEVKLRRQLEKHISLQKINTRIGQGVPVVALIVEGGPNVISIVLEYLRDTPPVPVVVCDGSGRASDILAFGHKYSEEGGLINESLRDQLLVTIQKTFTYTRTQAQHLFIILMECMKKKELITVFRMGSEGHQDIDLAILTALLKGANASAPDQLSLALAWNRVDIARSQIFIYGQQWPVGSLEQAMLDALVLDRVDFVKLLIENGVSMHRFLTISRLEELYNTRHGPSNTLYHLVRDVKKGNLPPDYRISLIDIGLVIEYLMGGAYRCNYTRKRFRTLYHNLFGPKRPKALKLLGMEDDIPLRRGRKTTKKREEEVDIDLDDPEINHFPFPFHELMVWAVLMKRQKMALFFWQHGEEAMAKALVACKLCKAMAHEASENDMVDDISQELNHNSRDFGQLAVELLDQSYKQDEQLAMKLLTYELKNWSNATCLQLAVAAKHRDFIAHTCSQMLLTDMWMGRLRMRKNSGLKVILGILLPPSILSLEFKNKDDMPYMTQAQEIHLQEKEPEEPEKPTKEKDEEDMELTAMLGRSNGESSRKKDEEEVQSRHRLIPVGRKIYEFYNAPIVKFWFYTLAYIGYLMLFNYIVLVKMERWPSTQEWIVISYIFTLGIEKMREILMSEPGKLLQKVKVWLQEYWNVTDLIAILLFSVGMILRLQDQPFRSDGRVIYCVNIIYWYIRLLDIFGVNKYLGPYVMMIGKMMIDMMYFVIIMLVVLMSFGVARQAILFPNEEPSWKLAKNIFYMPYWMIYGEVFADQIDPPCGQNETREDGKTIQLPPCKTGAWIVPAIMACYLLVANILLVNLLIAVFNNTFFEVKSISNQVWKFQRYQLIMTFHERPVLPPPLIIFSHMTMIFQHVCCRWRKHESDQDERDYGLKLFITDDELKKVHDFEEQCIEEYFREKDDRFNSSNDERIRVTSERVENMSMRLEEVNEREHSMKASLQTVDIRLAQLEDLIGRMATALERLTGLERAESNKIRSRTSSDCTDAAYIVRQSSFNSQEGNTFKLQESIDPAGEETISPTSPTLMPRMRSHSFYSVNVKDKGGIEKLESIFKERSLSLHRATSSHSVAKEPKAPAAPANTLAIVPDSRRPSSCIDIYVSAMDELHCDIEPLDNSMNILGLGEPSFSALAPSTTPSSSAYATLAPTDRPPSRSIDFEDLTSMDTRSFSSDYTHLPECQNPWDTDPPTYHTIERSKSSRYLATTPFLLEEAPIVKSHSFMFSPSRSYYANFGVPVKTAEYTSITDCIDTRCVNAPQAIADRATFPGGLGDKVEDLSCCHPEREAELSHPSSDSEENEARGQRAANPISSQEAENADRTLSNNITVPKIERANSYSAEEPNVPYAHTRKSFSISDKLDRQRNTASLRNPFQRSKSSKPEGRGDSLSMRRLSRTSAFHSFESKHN

## Cc1oc2ccc(OCc3cccnc3C(F)(F)F)cc2c1C(=O)Nc1cnn(C)c1 [compound 143, 2-methyl-N-(1-methyl-1H-pyrazol-4-yl)-5-((2-(trifluoromethyl)pyridin-3-yl)methoxy)benzofuran-3-carboxamide]
Cpd 001-199
  pIC50: > 6.00

## Cc1oc2ccc(OCc3ccccn3)cc2c1C(=O)NC(C)(CO)CO [compound 428, N-(1,3-dihydroxy-2-methylpropan-2-yl)-2-methyl-5-(pyridin-2-ylmethoxy)benzofuran-3-carboxamide]
cpds. 400-499
  pIC50: > 6.00

## Cc1ncsc1COc1ccc2oc(C)c(C(=O)NC3(CO)CCOC3)c2c1 (single isomer, unassigned) [cpd 132-En 1]
Cpd 001-199
  pIC50: > 6.00

## Cc1oc2ccc(OCc3cccnc3C3CC3)cc2c1C(=O)N[C@@H](CO)C(N)=O [compound 702, (S)-N-(1-Amino-3-hydroxy-1-oxopropan-2-yl)-5-((2-cyclopropylpyridin-3-yl)methoxy)-2-methylbenzofuran-3-carboxamide]
cpds. 667-751
  pIC50: > 6.00

## Cc1oc2ccc(OCc3cccnc3O)cc2c1C(=O)NC1CCNCC1(F)F (single isomer, unassigned) [cpd 564-En 1]
cpds. 500-599
  pIC50: > 6.00

## Cc1oc2ccc(OCc3cccnc3C(F)(F)F)cc2c1C(=O)NC1CCN(CC(F)(F)F)C1 (single isomer, unassigned) [149-En 1, 2-methyl-N-(1-(2,2,2-trifluoroethyl)pyrrolidin-3-yl)-5-((2-(trifluoromethyl)pyridin-3-yl)methoxy) -benzofuran-3-carboxamide]
Cpd 001-199
  pIC50: > 6.00

## Cc1ncsc1COc1ccc2oc(C)c(C(=O)NC3CCOCC3(F)F)c2c1 (single isomer, unassigned) [cpd 723-En 1]
cpds. 667-751
  pIC50: > 6.00

## Cc1ncc(COc2ccc3oc(C)c(C(=O)NCC4(F)CC4)c3c2)s1 [compound 372, N-((1-fluorocyclopropyl)methyl)-2-methyl-5-((2-methylthiazol-5-yl)methoxy)benzofuran-3-carboxamide]
Cpds 300-399
  IC50: < 1 µM

## Cc1ncsc1COc1cc(F)c2oc(C)c(C(=O)NC3(C(N)=O)COC3)c2c1 [compound 588, N-(3-carbamoyloxetan-3-yl)-7-fluoro-2-methyl-5-((4-methylthiazol-5-yl)methoxy)benzofuran-3c-arboxamide]
cpds. 500-599
  pIC50: > 6.00

## Cc1oc2ccc(OCc3ccnn3C)cc2c1C(=O)NC(C)(C)C(N)=O [compound 438, N-(1-amino-2-methyl-1-oxopropan-2-yl)-2-methyl-5-((1-methyl-1H-pyrazol-5-yl)methoxy)benzofuran-3-carboxamide]
cpds. 400-499
  pIC50: > 6.00

## Cc1oc2ccc(OCc3ccccn3)cc2c1C(=O)NC1(C(N)=O)COC1 [compound 581, N-(3-carbamoyloxetan-3-yl)-2-methyl-5-(pyridin-2-ylmethoxy)benzofuran-3-carboxamide]
cpds. 500-599
  pIC50: > 6.00

## Cc1oc2ccc(OCc3cccnc3N(C)C)cc2c1C(=O)N[C@@H](CO)C(N)=O [compound 297, (S)-N-(1-amino-3-hydroxy-1-oxopropan-2-yl)-5-((2-(dimethylamino)pyridin-3-yl)methoxy)-2-methylbenzofuran-3-carboxamide]
Cpds 200-299
  IC50: < 1 µM

## Cc1ncsc1COc1ccc2oc(C)c(C(=O)N[C@@H](CO)C(N)=O)c2c1 [compound 288, (S)-N-(1-amino-3-hydroxy-1-oxopropan-2-yl)-2-methyl-5-((4-methylthiazol-5-yl)methoxy)benzofuran-3-carboxamide]
Cpds 200-299
  IC50: < 1 µM

## Cc1oc2ccc(OCc3nc4ccccc4s3)cc2c1C(=O)O [compound 017, 5-(benzo[d]thiazol-2-ylmethoxy)-2-methylbenzofuran-3-carboxylic acid]
Cpd 001-199
  pIC50: < 4.70

## Cc1nc(C)c(COc2ccc3oc(C)c(C(=O)N[C@@H](CO)C(N)=O)c3c2)s1 [compound 298, (S)-N-(1-amino-3-hydroxy-1-oxopropan-2-yl)-5-((2,4-dimethylthiazol-5-yl)methoxy)-2-methylbenzofuran-3-carboxamide]
Cpds 200-299
  IC50: < 1 µM

## Cc1oc2ccc(OCc3cnccn3)cc2c1C(=O)N[C@@H](CO)C(N)=O [compound 714, (S)-N-(1-Amino-3-hydroxy-1-oxopropan-2-yl)-2-methyl-5-(pyrazin-2-ylmethoxy)benzofuran-3-carboxamide]
cpds. 667-751
  pIC50: > 6.00

## Cc1ncoc1COc1ccc2oc(C)c(C(=O)N[C@@H](CO)C(N)=O)c2c1 [compound 680, (S)-N-(1-Amino-3-hydroxy-1-oxopropan-2-yl)-2-methyl-5-((4-methyloxazol-5-yl)methoxy)benzofuran-3-carboxamide]
cpds. 667-751
  pIC50: > 6.00

## COc1ncccc1COc1ccc2oc(C)c(C(=O)NC3CCNCC3(F)F)c2c1 (single isomer, unassigned) [cpd 565-En 2]
cpds. 500-599
  pIC50: > 6.00

## Cc1ncc(COc2ccc3oc(C)c(C(=O)NC(C)(C)CO)c3c2)s1 [compound 483, N-(1-hydroxy-2-methylpropan-2-yl)-2-methyl-5-((2-methylthiazol-5-yl)methoxy)benzofuran-3-carboxamide]
cpds. 400-499
  pIC50: > 6.00

## COc1ncccc1COc1ccc2oc(C)c(C(=O)NC3COCC3(F)F)c2c1 (stereo not shown) [compound 665, N-(4,4-difluorotetrahydrofuran-3-yl)-5-((2-methoxypyridin-3-yl)methoxy)-2-methylbenzofuran-3-carboxamide]
cpds. 608-666
  pIC50: > 6.00

## Cc1oc2ccc(OCc3cccnc3N)cc2c1C(=O)N[C@@H](CO)C(N)=O [compound 300, (S)-N-(1-amino-3-hydroxy-1-oxopropan-2-yl)-5-((2-aminopyridin-3-yl)methoxy)-2-methylbenzofuran-3-carboxamide]
Cpds 300-399
  IC50: < 1 µM

## Cc1ncsc1COc1ccc2oc(C)c(C(=O)NCCNS(C)(=O)=O)c2c1 [compound 322, 2-methyl-N-(2-(methylsulfonamido)ethyl)-5-((4-methylthiazol-5-yl)methoxy)benzofuran-3-carboxamide]
Cpds 300-399
  IC50: < 1 µM

## Cc1oc2ccc(OCc3nccn3C)cc2c1C(=O)NC1CNCC1(F)F (single isomer, unassigned) [cpd 638-En 2]
cpds. 608-666
  pIC50: 4.70 to 6.00

## O=C(NC1CCNCC1(F)F)c1c(C2CC2)oc2ccc(OCc3cccnc3C(F)(F)F)cc12 (single isomer, unassigned) [cpd 313-En 2]
Cpds 300-399
  IC50: 1 to 20 µM

## Cc1oc2ccc(OCc3cccs3)cc2c1C(=O)NC1CCN(C)CC1 [compound 041, 2-methyl-N-(1-methylpiperidin-4-yl)-5-(thiophen-2-ylmethoxy)benzofuran-3-carboxamide]
Cpd 001-199
  pIC50: > 6.00

## Cc1cnc(COc2ccc3oc(C)c(C(=O)NC4CCNCC4(F)F)c3c2)s1 (single isomer, unassigned) [cpd 555-En 1]
cpds. 500-599
  pIC50: > 6.00

## Cc1ccc(COc2ccc3oc(C)c(C(=O)NC4(CO)CCOCC4)c3c2)nn1 [compound 621, N-(4-(hydroxymethyl)tetrahydro-2H-pyran-4-yl)-2-methyl-5-((6-methylpyridazin-3-yl)methoxy)benzofuran-3-carboxamide]
cpds. 608-666
  pIC50: < 4.70

## Cc1oc2ccc(OCc3ccnn3C)cc2c1C(=O)O [compound 008, 2-methyl-5-((1-methyl-1H-pyrazol-5-yl)methoxy)benzofuran-3-carboxylic acid]
Cpd 001-199
  pIC50: < 4.70

## Cc1ncsc1COc1ccc2oc(C)c(C(=O)NC3(C(N)=O)CC3)c2c1 [compound 477, N-(1-carbamoylcyclopropyl)-2-methyl-5-((4-methylthiazol-5-yl)methoxy)benzofuran-3-carboxamide]
cpds. 400-499
  pIC50: > 6.00

## Cc1ncsc1COc1ccc2oc(C)c(C(N)=O)c2c1 [compound 232, 2-methyl-5-((4-methylthiazol-5-yl)methoxy)benzofuran-3-carboxamide]
Cpds 200-299
  IC50: < 1 µM

## Cc1oc2ccc(OCc3cncc(C(F)(F)F)c3)cc2c1C(=O)N[C@H]1CCN(C(=O)OC(C)(C)C)C1 [compound 077, tert-butyl (S)-3-(2-methyl-5-((5-(trifluoromethyl)pyridin-3-yl)methoxy)benzofuran-3-carboxamido)pyrrolidine-1-carboxylate]
Cpd 001-199
  pIC50: < 4.70

## Cc1oc2ccc(OCc3ncccn3)cc2c1C(=O)NC1CCNCC1(F)F (single isomer, unassigned) [cpd 559-En 2]
cpds. 500-599
  pIC50: < 4.70

## Cc1cncc(COc2ccc3oc(C)c(C(=O)NC4CCNC4=O)c3c2)c1 (stereo not shown) [compound 038, 2-methyl-5-((5-methylpyridin-3-yl)methoxy)-N-(2-oxopyrrolidin-3-yl)benzofuran-3-carboxamide]
Cpd 001-199
  pIC50: > 6.00

## Cc1oc2ccc(OCc3cnnn3C)cc2c1C(=O)NC1(CO)CCOCC1 [compound 605, N-(4-(hydroxymethyl)tetrahydro-2H-pyran-4-yl)-2-methyl-5-((1-methyl-1H-1,2,3-triazol-5-yl)methoxy)benzofuran-3-carboxamide]
cpds. 608-666
  pIC50: < 4.70

## Cc1oc2ccc(OCc3cccnc3C(F)(F)F)cc2c1C(=O)NC1CCOC1 (single isomer, unassigned) [cpd 148-En 1]
Cpd 001-199
  pIC50: > 6.00

## Cc1oc2ccc(OCc3ccc4nccn4c3)cc2c1C(=O)NC1CCNCC1(F)F (single isomer, unassigned) [cpd 571-En 1]
cpds. 500-599
  pIC50: 4.70 to 6.00

## Cc1ncsc1COc1ccc2oc(C(F)F)c(C(=O)NC3CCNCC3(F)F)c2c1 (single isomer, unassigned) [cpd 310-En 2]
Cpds 300-399
  IC50: < 1 µM
